Assay results from US20220193185A1, “COMBINATION OF SYNTHETIC PEPTIDES WITH AFFINITY TO THE TGF-ß RECEPTOR AND WITH AFFINITY TO THE IL-10 RECEPTOR, PHARMACEUTICAL COMPOSITION AND THEIR USE AS IMMUNOMODULATORS IN THE TREATMENT OF AUTOIMMUNE, INFLAMMATORY OR ALLERGIC DISEASES” (Universidade Federal de Uberlândia, priority 2019, published 2022).
Bridges are numbered along the chain shown (N, C = ends). Where no end group is shown, it is not given here.

Legend:
J774 cell line = test: cytokine production after treatment of the J774 cell line; format: cell-based
Method: After 24 hours of treatment, the levels of IL-6, MCP-1 and TNF-α produced were measured.
Decreases were significant compared to cells treated with LPS alone (positive control). *P<0.05; **P<0.005; ***P<0.0005.

IFN signaling pathway = IFN signaling pathway in Jurkat-Dual reporter cells, SEAP production; format: cell-based; conditions: after 12, 24 and 48 hours; results depend on concentration
Method: (§1) In order to investigate the ability of synthetic peptides with affinity to the Interleukin-10 receptor to interfere in the NFkB, IFN and TLR4 pathways, reporter cell lines were used. To analyze whether the isolated peptides (without activation molecules) could induce any type of activation, the isolated peptides were tested in cell lines during 12, 24 and 48 hours of treatment. […] As an example, FIG. 13A, FIG. 13B, and FIG. 13C show an analysis of NFkB expression after stimulation with the synthesized IL-10 receptor affinity synthetic peptides described herein. Cells were treated for 12, 24 and 48 hours with the synthesized peptides Pep 1-IL10, Pep 2-IL10, Pep 3-IL10 and Pep 4-IL10, at different concentrations, without activating molecules. Luciferase was then measured after 12 hours of treatment (FIG. 13A), 24 hours of treatment (FIG. 13B) and 48 hours of treatment (FIG. 13C). […] TNF-α (200 ng/mL) was used as a positive control.
The most significant results will be described below. […] When cells were pretreated with IFN, although peptides at some concentrations indicated results, they were not statistically sufficient. Therefore, we cannot confirm whether they were able to interfere with pathway activation (FIGS. 17 A, B and C) in an equal or better way than the negative control (rIL-10). In the assays shown by FIGS. 16 (A, B and C) and FIGS. 17 (A, B and C), analysis of IFN expression was performed in Jurkat-Dual reporter cells. In the assays shown by FIGS. 16 A, B and C, cells were treated for 1 hour with peptides with further addition of IFN-α (104 EU/ml). Secreted Embryonic Alkaline Phosphatase (SEAP) production was measured after 12 hours of treatment (FIG. 16A), 24 hours of treatment (FIG. 16 B) and 48 hours of treatment (FIG. 16 C). In the assays shown by FIGS. 17A, B and C, cells were treated for 1 hour with IFN-α (104 EU/ml) with further addition of the peptides. SEAP production was measured after (A) 12 hours of treatment (B), 24 hours of treatment and (C) 48 hours of treatment. IFN-α (104 EU/ml) was used as a positive control and rlL-10 (0.4 ng/ml) as a negative control. *P<0.05.

NFkB pathway = test: NFkB expression in Jurkat-Dual reporter cells, luciferase (IL-10 mimetic peptides); format: cell-based; conditions: for concentrations with statistically significant decrease of NFKB activation: peptide pretreatment 1 hour, then TNF-α 200 ng/ml
Method: as §1
The assay was then carried out using TNF-α as activation molecule not only in the control, but after a pretreatment with the synthesized peptides Pep 1-IL10, Pep 2-IL10, Pep 3-IL10 and Pep 4-IL10, at different concentrations. All peptides were able to modulate NFKB activation after 12, 24 and 48 hours, with different results depending on the concentrations used. […] In the assays shown by FIGS. 14 A, B and C, analysis of NFkB expression was performed in Jurkat-Dual reporter cells. Cells were treated for 1 hour with peptides and TNF-α (200 ng/ml) added. Luciferase was measured after 12 hours of treatment (FIG. 14A), 24 hours of treatment (FIG. 14B) and 48 hours of treatment (FIG. 14C).
Another assay was then performed in which cells were pretreated with TNF-α and the synthesized peptides Pep 1-IL10, Pep 2-IL10, Pep 3-IL10 and Pep 4-IL10, at different concentrations, were added later. All peptides were able to modulate NFKB activation after 12, 24 and 48 hours, with different results depending on the concentrations used. The most significant results will be described below. […] After 48 hours of treatment, Pep 1-IL-10 at a concentration of 0.001 μM (P<0.05) was the one that obtained a result with the highest statistical significance in the decrease of NFKB signaling (FIG. 15C). In the assays shown by FIGS. 15 A, B and C, analysis of NFkB expression was performed in Jurkat-Dual reporter cells. Cells were treated for 1 hour with TNF-α (200 ng/ml) and peptides were added. Luciferase was measured after 12 hours of treatment (FIG. 15A), 24 hours of treatment (FIG. 15B) and 48 hours of treatment (FIG. 15C). TNF-α (200 ng/mL) was used as a positive control and rlL-10 (recombinant Interleukin-10) (0.4 ng/mL) as a negative control. *P<0.05; **P<0.005; ***P<0.0005.

[1] = aggregation behavior in solution by Dynamic Light Scattering (DLS); format: physicochemical; conditions: IL-10 mimetic peptides in solution
[2] = test system: rat basophilic leukemia cells transfected with the human FIϵRI IgE receptor (hRBL); test: IgE-mediated release in hRBL cells sensitized with serum from patients allergic to birch pollen, Bet v 1; format: cell-based; conditions: Pep 1-IL-10 at 1 μM; serum from seven birch pollen allergic donors
Method: The effect of IL-10 mimetic peptides on IgE-mediated release was examined using rat basophilic leukemia cells transfected with the human FIϵRI IgE receptor (hRBL). As an example, we selected as an example Pep 1-IL-10 to show the data obtained. The hRBL cells were sensitized with serum from seven patients allergic to birch pollen. Cells were stimulated with the antigen and its interaction with immobilized IgEs caused a release of b-hexosaminidase.
When cells were treated with a composition comprising Pep 1-IL-10 at 1 μM (FIG. 21A) or rIL10 (FIG. 21B), the amount of Bet v 1 needed to induce the same amount of degranulation was higher when compared to cells treated only with Bet vl (P<0.05). Amount of rBet v 1 (ng/mL) required to induce half the release of b-hexosaminidase using serum from seven birch pollen allergic donors after treatment with Pep 1-IL-10 (A) (P<0.05) and rIL10 (B)*P<0.05.

[3] = peptide followed by LPS, 24 hours

Pep 1-IL-10: synthetic peptide with affinity to the Interleukin-10 receptor, SEQ ID 09, with disulfide bridges (HACSAVIKSSCGGGS; disulfide 3-11 (inferred))
production of IL-10, IFN-g or IL12p70 (J774 cell line; 24 hours of treatment): No interference
production of IL-6, MCP-1 and TNF-α (J774 cell line; peptide followed by LPS for 24 hours): able to decrease
concentrations that significantly reduced IL-6 levels vs LPS alone (J774 cell line; [3]): 1 μM, 10 μM and 100 μM
concentrations that significantly reduced MCP-1 levels vs LPS alone (J774 cell line; [3]): 1 µM and 10 µM
concentrations that significantly reduced TNF-α levels vs LPS alone (J774 cell line; [3]): 1 μM, 10 μM and 100 μM
cytokine response to peptide alone (J774 cell line; without LPS stimulation, 24 hours): unable to induce any response
modulation of the activation of the IFN signaling pathway (IFN signaling pathway): able to modulate the activation of the IFN signaling pathway
concentration with highest statistical significance in the decrease of NFKB signaling (NFkB pathway; cells pretreated 1 hour with TNF-α 200 ng/ml, peptides added, 48 hours): 0.001 µM
concentrations with statistically significant decrease of NFKB activation (NFkB pathway; 12 hours): all concentrations tested
concentrations with statistically significant decrease of NFKB activation (NFkB pathway; 24 hours): all concentrations tested
concentrations with statistically significant decrease of NFKB activation (NFkB pathway; 48 hours): all concentrations tested
induction of NFkB expression by peptides alone (NFkB pathway; without activating molecules, 12, 24 and 48 hours, different concentrations): not able to induce any response
measured hydrodynamic radius [1]: 0.82 nm
amount of Bet v 1 needed to induce the same amount of degranulation (half the release of b-hexosaminidase) vs Bet v 1 only [2]: higher
